From ChEMBL document CHEMBL1201862, “PubChem BioAssay data set” (2004)
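These data come from cells grown in 96-well plates and exposed to compound for 48 hours at five concentrations. The concentration for 50% growth inhibition is given as GI50.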 The source made the active and inactive calls. Rule as the data show it: active = GI50 up to about 1.1 µM and inactive = higher.

Tests used:
Test in all cases: DTP human tumour cell line panel, 48 h
HT-29 = tested on: HT-29
KM12 = tested on: KM12
LOX IMVI = tested on: LOX IMVI
TK-10 = tested on: TK-10
NCI-H460 = tested on: NCI-H460
SK-OV-3 = tested on: SK-OV-3
MCF7 = tested on: MCF7
SW-620 = tested on: SW-620
NCI-H226 = tested on: NCI-H226
NCI-H522 = tested on: NCI-H522
OVCAR-5 = tested on: OVCAR-5
PC-3 = tested on: PC-3
OVCAR-4 = tested on: OVCAR-4
HOP-62 = tested on: HOP-62
Malme-3M = tested on: Malme-3M
HOP-92 = tested on: HOP-92
SR = tested on: SR
Hs-578T = tested on: Hs-578T
UACC-62 = tested on: UACC-62
SK-MEL-2 = tested on: SK-MEL-2

SMILES | GI50 (HT-29) | GI50 (KM12) | GI50 (LOX IMVI) | GI50 (TK-10) | GI50 (NCI-H460) | GI50 (SK-OV-3) | GI50 (MCF7) | GI50 (SW-620) | GI50 (NCI-H226) | GI50 (NCI-H522) | GI50 (OVCAR-5) | GI50 (PC-3) | GI50 (OVCAR-4) | GI50 (HOP-62) | GI50 (Malme-3M) | GI50 (HOP-92) | GI50 (SR) | GI50 (Hs-578T) | GI50 (UACC-62) | GI50 (SK-MEL-2)
CCOc1cc(C2SCC(=O)N2c2nc3cc4sc(N5C(=O)CSC5c5ccc(O)c(OCC)c5)nc4cc3s2)ccc1O (stereo not given) | 18.4 µM (inactive) | 45.3 µM (inactive) | 38.3 µM (inactive) | > 100 µM (inactive) | 2.37 µM (inactive) | > 100 µM (inactive) | 9.86 µM (inactive) | 27.1 µM (inactive) | 23.6 µM (inactive) | 20.4 µM (inactive) | > 100 µM (inactive) | 58.5 µM (inactive) | 48.4 µM (inactive) | > 100 µM (inactive) | > 68.9 µM (inactive) | 27.7 µM (inactive) | 5.85 µM (inactive) | > 47.1 µM (inactive) | 98.6 µM (inactive) | > 100 µM (inactive)
O=C(Cn1c(=O)oc2ccc(C(=O)c3ccc(F)cc3)cc21)c1ccc([N+](=O)[O-])cc1 | 39 µM (inactive) | 22.8 µM (inactive) | 34.8 µM (inactive) | 36.6 µM (inactive) | 32.8 µM (inactive) | 69.8 µM (inactive) | 31.7 µM (inactive) | 36.7 µM (inactive) | 27.3 µM (inactive) | 18.8 µM (inactive) | > 100 µM (inactive) | 22.5 µM (inactive) | 25.5 µM (inactive) | 54.5 µM (inactive) | 31.8 µM (inactive) | 49.3 µM (inactive) | 12.6 µM (inactive) | 20.4 µM (inactive) | 34.2 µM (inactive) | 20.2 µM (inactive)
O=C1C(c2ccccc2)=C(c2ccccc2)C1(Cl)Cl | 3.15 µM (inactive) | 6.65 µM (inactive) | 1.93 µM (inactive) | 0.667 µM (active) | 5.9 µM (inactive) | 15.8 µM (inactive) | 2.61 µM (inactive) | 2.75 µM (inactive) | 3.07 µM (inactive) | 2.12 µM (inactive) | 7.82 µM (inactive) | 4.37 µM (inactive) | 3.67 µM (inactive) | 14.8 µM (inactive) | 2.86 µM (inactive) | 2.37 µM (inactive) | 2.04 µM (inactive) | 3.56 µM (inactive) | 1.86 µM (inactive) | 2.72 µM (inactive)
Nc1nc(Cl)cc(NCC2(CO)CCCCC2)n1 | > 100 µM (inactive) | > 100 µM (inactive) | 49.3 µM (inactive) | > 100 µM (inactive) | > 100 µM (inactive) | > 100 µM (inactive) | 97.9 µM (inactive) | > 100 µM (inactive) | > 100 µM (inactive) | > 100 µM (inactive) | > 100 µM (inactive) | 83.4 µM (inactive) | 80.7 µM (inactive) | > 100 µM (inactive) | > 100 µM (inactive) | 56.9 µM (inactive) | 68.2 µM (inactive) | > 100 µM (inactive) | > 100 µM (inactive) | > 100 µM (inactive)
O=C1O[C@H](c2ccc3c(c2)OCO3)[C@H]2CO[C@@H](c3ccc4c(c3)OCO4)[C@@H]12 | 77.6 µM (inactive) | > 100 µM (inactive) | > 100 µM (inactive) | > 100 µM (inactive) | > 100 µM (inactive) | > 100 µM (inactive) | > 100 µM (inactive) | > 100 µM (inactive) | > 100 µM (inactive) | 94.8 µM (inactive) | > 100 µM (inactive) | > 100 µM (inactive) | 96.2 µM (inactive) | > 100 µM (inactive) | > 100 µM (inactive) | > 100 µM (inactive) | 42.7 µM (inactive) | > 100 µM (inactive) | 88.5 µM (inactive) | > 100 µM (inactive)
NC(=O)C(c1ccccc1)N1OC2C(=O)N(c3cccc4ccccc34)C(=O)C2C1c1c2ccccc2c(Cl)c2ccccc12 (stereo not given) | 7.53 µM (inactive) | 1.59 µM (inactive) | 6.1 µM (inactive) | 10.4 µM (inactive) | 9.31 µM (inactive) | 19 µM (inactive) | 2.85 µM (inactive) | 3.15 µM (inactive) | 6.25 µM (inactive) | 10.1 µM (inactive) | 9.66 µM (inactive) | 6.98 µM (inactive) | 9.93 µM (inactive) | 11 µM (inactive) | 11.6 µM (inactive) | 9.27 µM (inactive) | 1.21 µM (inactive) | 18.6 µM (inactive) | 6.93 µM (inactive) | 8.69 µM (inactive)
